Laboratory results published in patent US20110106000A1, “Nitric Oxide Compositions and Devices and Methods for Cosmesis” (MICROPHARMA LIMITED, priority 2008, published 2011).

Legend:
porcine liver esterase = assay: Enzymatic generation of gNO with porcine liver esterase, sodium nitrite and ester substrates; type: biochemical; details: for substrate ranking for porcine liver esterase (gNO generation): FIG. 31, measured hourly; for gNO production: porcine liver esterase, sodium nitrite
Protocol: (§1) Enzymatic Generation of gNO: A 200 μl reaction solution was prepared by combining water, an acetate ester (ethyl acetate, isobutyl acetate, octyl acetate) or a triglyceride such as triacetin (glyceryl triacetate), sodium nitrite, and an esterase (porcine liver esterase, rhyzopus oryzae esterase) or a lipase (porcine pancreatic lipase, candida rugosa lipase). The solution was then added to a 2 ml vial, which was closed tightly with a septum cap. The head gas was sampled every hour from the reaction containing vials in order to determine gNO concentrations.

candida rugosa lipase = assay: Enzymatic generation of gNO with candida rugosa lipase, sodium nitrite and ester substrates; type: biochemical
Protocol: as §1

Row | Structure (SMILES) | substrate ranking for porcine liver esterase (gNO generation) (porcine liver esterase) | gNO production (porcine liver esterase; 0.5% triacetin in the assay) [ppmV] | gNO production (porcine liver esterase; 1% triacetin in the assay) | gNO production (porcine liver esterase; over the 6 hour experiment) [ppmV] | nitric oxide production (in words) (candida rugosa lipase; candida rugosa lipase tested against four substrates) | gNO production (candida rugosa lipase; candida rugosa lipase, sodium nitrite, one hour after the reaction was started) [ppmV]
1 | CCOC(C)=O [ethyl acetate] | best substrates | – | – | – | – | –
2 | CC(=O)OCC(COC(C)=O)OC(C)=O [triacetin, glyceryl triacetate] | best substrates | ≤ 200 | up to 250 ppmV | > 350 | able to produce high amounts of nitric oxide | ≥ 200
